Assays:
Assay type in all cases: biochemical
[1] = target: T1, recombinant heparanase (Homo sapiens, UniProt Q9Y251); test: Heparanase inhibition, fragmentation of HS of sulphate labelled ECM (Table 1); conditions: pH 6.2
T1 sequence (Q9Y251 36-543): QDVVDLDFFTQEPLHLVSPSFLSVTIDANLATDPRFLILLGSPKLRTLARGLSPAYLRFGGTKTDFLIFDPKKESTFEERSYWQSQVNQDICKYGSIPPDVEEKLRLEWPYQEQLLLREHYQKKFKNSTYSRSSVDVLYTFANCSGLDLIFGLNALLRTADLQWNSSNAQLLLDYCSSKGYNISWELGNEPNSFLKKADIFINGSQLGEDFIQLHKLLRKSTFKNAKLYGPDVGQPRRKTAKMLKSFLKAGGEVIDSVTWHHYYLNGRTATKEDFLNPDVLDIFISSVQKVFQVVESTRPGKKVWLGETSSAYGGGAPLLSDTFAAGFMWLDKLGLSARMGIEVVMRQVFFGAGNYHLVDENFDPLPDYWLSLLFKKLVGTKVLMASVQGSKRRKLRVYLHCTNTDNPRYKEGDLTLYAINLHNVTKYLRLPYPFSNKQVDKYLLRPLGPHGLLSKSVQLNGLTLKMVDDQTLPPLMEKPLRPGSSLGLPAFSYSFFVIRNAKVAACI
Method: The heparanase inhibiting activity was determined according to a method established by Vlodavsky's group (Bitan M. et al, 1995). The method is based on evaluation of the extent of fragmentation of the heparan sulphate chains of heparan sulphate proteoglycans (HSPG) caused by heparanase. Sulphate labelled extracellular matrix (ECM) is most commonly used as a source of HSPG. Sulphate labelled ECM is incubated with recombinant heparanase at pH 6.2 in the absence and in the presence of increasing concentrations of the test compound. To evaluate the occurrence of proteoglycan degradation, the incubation medium is collected and applied for gel filtration on Sepharose 6B columns (0.9×30 cm). Fractions (0,2 ml) are eluted with PBS at a flow rate of 5 ml/h and counted for radioactivity. The excluded volume (Vo) is marked by blue dextran and the total included volume (Vt) by phenol red. Degradation fragments of HS side chains are eluted from Sepharose 6B at 0.5<Kav<0.8 (peak II).

[2] = target: T2, recombinant heparanase (Homo sapiens, UniProt Q9Y251); test: Heparanase inhibition activity with sulfate labeled ECM as substrate (Example 4, Table 2); conditions: 1 μg/ml; heparanase 40 ng/ml, 4 h, 37° C., pH 6.0
T2 construct: Recombinant enzymatically active heparanase was purified from heparanase-transfected CHO cells; made in house; host or cells: CHO cells transfected with heparanase
T2 sequence (Q9Y251 158-543 limits assumed): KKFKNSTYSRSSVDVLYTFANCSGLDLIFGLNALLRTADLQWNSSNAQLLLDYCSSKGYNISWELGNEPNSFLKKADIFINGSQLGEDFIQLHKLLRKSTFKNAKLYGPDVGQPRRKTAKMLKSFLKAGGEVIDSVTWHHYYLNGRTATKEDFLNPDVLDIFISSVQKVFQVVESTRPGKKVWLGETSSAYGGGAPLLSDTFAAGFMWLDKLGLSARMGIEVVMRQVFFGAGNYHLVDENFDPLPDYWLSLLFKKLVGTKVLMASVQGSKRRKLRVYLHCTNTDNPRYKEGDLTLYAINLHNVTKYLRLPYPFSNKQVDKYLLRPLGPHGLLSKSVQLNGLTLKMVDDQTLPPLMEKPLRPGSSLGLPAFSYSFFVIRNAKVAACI
T2 sequence (Q9Y251 36-109 limits assumed): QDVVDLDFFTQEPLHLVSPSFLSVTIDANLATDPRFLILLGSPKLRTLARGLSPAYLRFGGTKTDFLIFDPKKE
Method: Recombinant enzymatically active heparanase was purified from heparanase-transfected CHO cells (1).
Bovine corneal endothelial cells were plated into 35-mm tissue culture dishes at an initial density of 2×10^5 cells/ml and cultured as described above, except that 4% dextran T-40 was included in the growth medium (1, 52). On day 12, the subendothelial ECM was exposed by dissolving the cell layer with PBS containing 0.5% Triton X-100 and 20 mM NH4OH, followed by four washes with PBS (12). The ECM remained intact, free of cellular debris and firmly attached to the entire area of the tissue culture dish. To produce sulfate labelled ECM, […] (Amersham, Buckinghamshire, UK) was added (25 μCi/ml) on days 2 and 5 after seeding and the cultures were incubated with the label without medium change and processed as described (1, 52). Nearly 80% of the ECM radioactivity was incorporated into HSPG.
Heparin species were tested for their ability to inhibit heparanase, using metabolically sulfate labeled ECM as a substrate. […] Fractions (0.2 ml) were eluted with PBS at a flow rate of 5 ml/h and counted for radioactivity. […]
Heparanase activity is calculated as the total amount of cpm eluted in peak II multiplied by the Kav (i.e., elution position) of these fragments. […]

[3] = target: T2, recombinant heparanase; test: Gel permeation analysis before and after digestion with heparanase (susceptibility to cleavage); conditions: 2 mg compound, 4 μg recombinant heparanase, 48 h, 37° C., pH 5.8; GPC-HPLC
Method: FIG. 8. Glycol-splitting inhibits cleavage by heparanase. Gel filtration profiles of fully N-acetylated heparin (A) and 52% glycol split heparin (B) before (a) and after (b) incubation with heparanase. 2 mg of each compound were incubated for 48 h at 37° C. in 40 mM phosphate-citrate buffer, pH 5.8, with or without 4 μg recombinant heparanase in a total volume of 50 μl. The samples were lyophilized, then redisolved in 0.5 ml water and analyzed by GPC-HPLC using 300×7.8 mm TSK PW 2000 and PW 3000 colums and a refraction index detector. The sharp peak is from salts.
Gel permeation analysis of N-acetyl heparin (NAH) and ˜50% glycol-split heparin (H, 52gs) before and after digestion with heparinase 2 mg of each compound were incubated for 48 h at 37° C. in 40 mM phosphate-citrate buffer, pH 5.8, with or without 4 μg recombinant heparanase in a total volume of 50 μl. The samples were lyophilized, then redisolved in 0.5 ml of water and analyzed by GPC-HPLC using 300×7.8 mm TSK PW 2000 and PW 3000 columns.

In the case of Heparin, the Inhibition [1] is reported as greater than 100%, the “Heparanase inhibitory activity, % Mean [SD (N)]” value [2] is reported as roughly 70% and the cleavage by heparanase [3] is reported as “cleaved by heparanase”.
